Experimental data taken from publication PMC10161260 (The Journal of antimicrobial chemotherapy, 2023).
Where two headings read alike, the source gives them in different places. One block for each compound: values may come before it.

What was measured:
[1] = type: in vivo, human; conditions: for Cmax in PBMCs: all participants, geometric mean (95% CI)
[2] = type: in vivo, human; conditions: for Mean peak concentration in rectal tissue: 48 h after the first dose; for Time of peak mean concentration in rectal tissue: after the first dose; for Time rectal tissue concentrations remained measurable after the second dose: in vivo
clinical [3] = experiment: clinical; design: species or system human; conditions: in vivo; for AUC0–120h in plasma / Cmax / Tmax / Mean plasma concentration by 72 h (48 h after the second dose): po
[4] = Rectal swab / rectal secretion drug concentrations after two oral doses in MSM; type: in vivo, human; conditions: for Mean concentration on rectal swabs at 48 h: 48 h after first dose (elvitegravir peak), geometric mean; for Concentration on rectal swabs by 120 h: LLOQ 1 ng/swab; for Time of peak mean concentration on rectal swabs: hours after first dose
[5] = design: species or system human; conditions: in vivo; for Antiretroviral drug detection, glans swab / Antiretroviral drug detection, urethral swab: male, human
clinical [6] = experiment: clinical; design: species or system human; conditions: in vivo; for Cmax: po
[7] = design: species or system human; conditions: in vivo
[8] = stated as known, no reference given; cited from earlier work
HIV = conditions: cited from earlier work
[9] = cited from earlier work

Plasma AUC0–120h of bictegravir relative to elvitegravir (clinical [3]; human): more than twice | AUC0–120h in plasma (clinical [3]): 94 437 (8748) ng × h/mL | Mean plasma concentration 96 h after dosing (clinical [3]; male, human, 96 h): 273 (95% CI: 164–456) ng/mL | Cmax (clinical [3]; male, human): 1770 ng/mL | Tmax (clinical [3]; male, human): 2 h | Mean concentration on rectal swabs at 48 h [4]: 2.1 ng/swab | Concentration on rectal swabs by 120 h [4]: undetectable in most rectal swabs | Detection in penile secretions [5]: not consistently detected | Antiretroviral drug detection, glans swab [5]: 2/71 (3%) | Antiretroviral drug detection, urethral swab [5]: 3/71 (4%) | AUC0–120h in rectal tissue (clinical [6]): 20.53 (5.14) ng × h/mg | Mean rectal tissue concentration relative to PAEC95 (clinical [6]; male, human): did not reach more than twice the PAEC95 | concentration at 2 h (clinical [6]; male, human): 270 ng/g | Cmax (clinical [6]; male, human): 290 ng/g | Urine concentration within 48 h after the second dose [7]: undetectable | Antiretroviral drug detection, urine ([7]; male, human): 32/70 (46%) | Detected in urine specimens ([7]; male, human): 46% | Mean urine concentration ([7]; male, human): less than 1 μg/mL
SMILES: O=C(NCc1c(F)cc(F)cc1F)c1cn2c(c(O)c1=O)C(=O)N1[C@H]3CC[C@H](C3)O[C@@H]1C2 [bictegravir]
Protein binding in plasma [8]: highly protein bound | 95% protein-adjusted effective concentration (PAEC95) (HIV): 162 ng/mL

Cmax in PBMCs [1]: 7549 (6528–8729) fmol/10^6 PBMC | Tmax ([1]; male, human, PBMCs, oral, 200 mg): 26 h | Mean peak concentration in rectal tissue [2]: 64.1 fmol/mg | Time of peak mean concentration in rectal tissue [2]: 48 h | Time rectal tissue concentrations remained measurable after the second dose [2]: at least 96 h
SMILES: Nc1nc(=O)n([C@@H]2CS[C@H](COP(=O)(O)OP(=O)(O)OP(=O)(O)O)O2)cc1F [emtricitabine triphosphate]

Mean plasma concentration by 72 h (48 h after the second dose) (clinical [3]): undetectable | Time of peak mean concentration on rectal swabs [4]: 48 h | Mean emtricitabine concentration on rectal swabs at 48 h (peak) ([4]; participants also receiving bictegravir): 57 ng/swab | Mean emtricitabine concentration on rectal swabs at 48 h (peak) ([4]; participants also receiving boosted elvitegravir): 241 ng/swab | Time of peak mean rectal tissue emtricitabine concentration (clinical [6]; male, human): 4 h | Detected in urine specimens (tenofovir and emtricitabine together) ([7]; male, human): 273/276
SMILES: Nc1nc(=O)n([C@@H]2CS[C@H](CO)O2)cc1F [emtricitabine]

Time of peak mean concentration on rectal swabs [4]: 48 h | Mean tenofovir concentration on rectal swabs at 48 h (peak) ([4]; not different between regimens): 16 ng/swab | Tenofovir concentration in rectal tissue (clinical [6]; male, human): less than 1 ng/mg | Detected in urine specimens (tenofovir and emtricitabine together) ([7]; male, human): 273/276
SMILES: C[C@H](Cn1cnc2c(N)ncnc21)OCP(=O)(O)O [tenofovir]

Second part, the compound before the results:

SMILES: CC(Cn1cnc2c(N)ncnc21)OCP(=O)(O)OP(=O)(O)OP(=O)(O)O (stereo in doubt) [tenofovir diphosphate]
Cmax in PBMCs [1]: 552 (297–1026) fmol/10^6 PBMC | Tmax in PBMCs ([1]; hours after first dose): 28 h | Mean peak concentration in rectal tissue [2]: 15.3 fmol/mg | Time of peak mean concentration in rectal tissue [2]: 48 h | Time rectal tissue concentrations remained measurable after the second dose [2]: at least 96 h

SMILES: C[C@H]1CO[C@@H]2Cn3cc(C(=O)NCc4ccc(F)cc4F)c(=O)c(O)c3C(=O)N12 [cabotegravir]
Tissue-to-plasma ratio [9]: low tissue-to-plasma ratio

SMILES: COc1cc2c(cc1Cc1cccc(Cl)c1F)c(=O)c(C(=O)O)cn2[C@H](CO)C(C)C [elvitegravir]
AUC0–120h in plasma (clinical [3]): 44 472 (4341) ng × h/mL | Mean plasma concentration by 72 h (48 h after the second dose) (clinical [3]): undetectable | Cmax (clinical [3]; male, human): 2010 ng/mL | Tmax (clinical [3]; male, human): 28 h | Mean concentration on rectal swabs at 48 h [4]: 1085 ng/swab | Concentration on rectal swabs by 120 h [4]: undetectable in most rectal swabs | Elvitegravir rectal swab concentration at 48 h relative to bictegravir ([4]; P = 0.029): over 500 times | Time of peak mean concentration on rectal swabs [4]: 48 h | Detection in penile secretions [5]: not consistently detected | Antiretroviral drug detection, glans swab [5]: 9/80 (11%) | Antiretroviral drug detection, urethral swab [5]: 14/68 (21%) | AUC0–120h in rectal tissue (clinical [6]): 469.78 (321.92) ng × h/mg | Tmax (clinical [6]; male, human): 4 h | concentration at 2 h (clinical [6]; male, human): 1070 ng/g | Cmax (clinical [6]; male, human): 3310 ng/g | Antiretroviral drug detection, urine ([7]; male, human): 4/73 (5%) | Detected in urine specimens ([7]; male, human): 5% | Protein binding in plasma [8]: highly protein bound | 95% protein-adjusted inhibitory concentration (PAIC95) (HIV): 45 ng/mL
